Laboratory results from patent US12161722B2, “Bifunctional heterocyclic compound having BTK degradation function via ubiquitin proteasome pathway, and use thereof” (KOREA RESEARCH INSTITUTE OF CHEMICAL TECHNOLOGY, priority 2021, dated 2024).

Molecular target: T1, WT BTK protein (Homo sapiens, UniProt Q06187)
T1 construct: measured for intracellular BTK protein levels by Western blotting; endogenous in cells; host or cells: TMD-8 or RAMOS cells
Assay: BTK protein degradation assay (Western blotting), WT BTK
Assay type: cell-based
Settings: concentration range accounting for 50% degradation of WT BTK protein, TMD-8 or RAMOS cells, 24 hours
Outline: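 BTK levels were read by Western blotting (GAPDH and β-actin normalisers) in RIPA lysates of TMD-8 cells exposed to compounds for 24 h at 1×10^6 cells/mL. Results scored in ranges of the concentration producing 50% loss of WT BTK.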

T1 sequence (Q06187 whole entry): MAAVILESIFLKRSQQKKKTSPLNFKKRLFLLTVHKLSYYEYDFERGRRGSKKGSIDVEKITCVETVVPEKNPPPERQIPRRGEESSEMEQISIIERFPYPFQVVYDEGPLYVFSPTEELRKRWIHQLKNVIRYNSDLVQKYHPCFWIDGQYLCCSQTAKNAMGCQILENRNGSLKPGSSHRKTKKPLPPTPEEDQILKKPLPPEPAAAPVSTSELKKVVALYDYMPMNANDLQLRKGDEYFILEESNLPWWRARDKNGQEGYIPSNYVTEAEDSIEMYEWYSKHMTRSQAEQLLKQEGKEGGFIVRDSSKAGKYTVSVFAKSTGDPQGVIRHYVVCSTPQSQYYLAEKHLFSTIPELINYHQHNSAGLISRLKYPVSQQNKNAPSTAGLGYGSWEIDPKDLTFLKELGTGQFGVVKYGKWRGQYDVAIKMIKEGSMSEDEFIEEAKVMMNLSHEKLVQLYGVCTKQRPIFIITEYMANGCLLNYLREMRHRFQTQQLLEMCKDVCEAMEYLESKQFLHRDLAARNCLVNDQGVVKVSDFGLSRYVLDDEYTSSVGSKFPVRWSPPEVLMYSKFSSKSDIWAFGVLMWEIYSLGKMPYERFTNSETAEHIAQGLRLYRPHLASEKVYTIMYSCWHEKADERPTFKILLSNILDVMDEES

| DC50 [nM] | SMILES |
| --- | --- |
| 0.1 to 10 | Cc1cccc(C)c1Nc1nn(C)c2nc(Nc3ccc4c(c3)CCN(C[C@H]3CCN(c5ccc6c(c5)C(=O)N(C5CCC(=O)NC5=O)C6=O)C3)C4)ncc12 (stereo partly drawn) [Compound 173, 5-((R)-3-((6-((3-((2,6-Dimethylphenyl)amino)-1-methyl-1H-pyrazolo[3,4-d]pyrimidin-6-yl)amino)-3,4-dihydroisoquinolin-2 (1H)-yl)methyl)pyrrolidin-1-yl)-2-(2,6-dioxopiperidin-3-yl)isoindoline-1,3-dione] |
| 0.1 to 10 | Cc1cccc(C)c1Nc1nn(C)c2nc(Nc3ccc4c(c3)CCN(C[C@@H]3CCN(c5ccc6c(c5)C(=O)N(C5CCC(=O)NC5=O)C6=O)C3)C4)ncc12 (stereo partly drawn) [Compound 174, 5-((S)-3-((6-((3-((2,6-Dimethylphenyl)amino)-1-methyl-1H-pyrazolo[3,4-d]pyrimidin-6-yl)amino)-3,4-dihydroisoquinolin-2 (1H)-yl)methyl)pyrrolidin-1-yl)-2-(2,6-dioxopiperidin-3-yl)isoindoline-1,3-dione] |
| 0.1 to 10 | Cc1cccc(C)c1Nc1nn(C)c2nc(Nc3ccc(C4CN(CC5CCN(c6ccc7c(c6)C(=O)N(C6CCC(=O)NC6=O)C7=O)CC5)C4)cc3)ncc12 (centres unmarked) [Compound 175, 5-(4-((3-(4-((3-((2,6-Dimethylphenyl)amino)-1-methyl-1H-pyrazolo[3,4-d]pyrimidin-6-yl)amino)phenyl)azetidin-1-yl)methyl)piperidin-1-yl)-2-(2,6-dioxopiperidin-3-yl)isoindoline-1,3-dione] |
| 0.1 to 10 | Cc1cccc(C)c1Nc1nn(C)c2nc(Nc3ccc(C4CN(C[C@H]5CCN(c6ccc7c(c6)C(=O)N(C6CCC(=O)NC6=O)C7=O)C5)C4)cc3)ncc12 (stereo partly drawn) [Compound 176, 5-((R)-3-((3-(4-((3-((2,6-dimethylphenyl)amino)-1-methyl-1H-pyrazolo[3,4-d]pyrimidin-6-yl)amino)phenyl)azetidin-1-yl)methyl)pyrrolidin-1-yl)-2-(2,6-dioxopiperidin-3-yl)isoindoline-1,3-dione] |
| 0.1 to 10 | Cc1cccc(C)c1Nc1nn(C)c2nc(Nc3ccc(C4CN(C[C@@H]5CCN(c6ccc7c(c6)C(=O)N(C6CCC(=O)NC6=O)C7=O)C5)C4)cc3)ncc12 (stereo partly drawn) [Compound 177, 5-((S)-3-((3-(4-((3-((2,6-Dimethylphenyl)amino)-1-methyl-1H-pyrazolo[3,4-d]pyrimidin-6-yl)amino)phenyl)azetidin-1-yl)methyl)pyrrolidin-1-yl)-2-(2,6-dioxopiperidin-3-yl)isoindoline-1,3-dione] |
| 0.1 to 10 | Cc1cccc(C)c1Nc1nn(C)c2nc(Nc3ccc4c(c3)CN(CC(O)CN3CCN(c5ccc6c(c5)C(=O)N(C5CCC(=O)NC5=O)C6=O)CC3)CC4)ncc12 (centres unmarked) [Compound 178, 5-(4-(3-(7-((3-((2,6-Dimethylphenyl)amino)-1-methyl-1H-pyrazolo[3,4-d]pyrimidin-6-yl)amino)-3,4-dihydroisoquinolin-2 (1H)-yl)-2-hydroxypropyl)piperazin-1-yl)-2-(2,6-dioxopiperidin-3-yl)isoindoline-1,3-dione] |
| 0.1 to 10 | Cc1cccc(C)c1Nc1nn(C)c2nc(Nc3ccc(N4CCN(C[C@H]5CCN(c6ccc7c(c6)C(=O)N(C6CCC(=O)NC6=O)C7=O)C5)CC4)cc3)ncc12 (stereo partly drawn) [Compound 179, 5-((R)-3-((4-(4-((3-((2,6-Dimethylphenyl)amino)-1-methyl-1H-pyrazolo[3,4-d]pyrimidin-6-yl)amino)phenyl)piperazin-1-yl)methyl)pyrrolidin-1-yl)-2-(2,6-dioxopiperidin-3-yl)isoindoline-1,3-dione] |
| 0.1 to 10 | Cc1cccc(C)c1Nc1nn(C)c2nc(Nc3ccc(N4CCN(C[C@@H]5CCN(c6ccc7c(c6)C(=O)N(C6CCC(=O)NC6=O)C7=O)C5)CC4)cc3)ncc12 (stereo partly drawn) [Compound 180, 5-((S)-3-((4-(4-((3-((2,6-Dimethylphenyl)amino)-1-methyl-1H-pyrazolo[3,4-d]pyrimidin-6-yl)amino)phenyl)piperazin-1-yl)methyl)pyrrolidin-1-yl)-2-(2,6-dioxopiperidin-3-yl)isoindoline-1,3-dione] |
